Read-outs that look alike come from different tables or passages of the source.
Tests used:
[1] = biological target: ERα (Homo sapiens (Human), UniProt P03372); experiment: Degradation experiment of MCF-7 ERα (ELISA); type: cell-based; details: MCF-7 cell line, 4 hours incubation, total ERα ELISA; read-out: IC50 value of promoting ERα degradation
Excerpt: (2) Degradation Experiment of MCF-7 ERα Experimental Materials:
Phenol red-free MEM culture medium was purchased from Wisent, fetal bovine serum was purchased from Biosera, and Human Total ERα/NR3A1 ELISA kit was purchased from R&D. MCF-7 cell line was purchased from Cell Bank of Type Culture Collection of Chinese Academy of Sciences. Nivo5 multi-label analyzer (PerkinElmer).
MCF-7 cells were resuspended in culture medium (phenol red-free MEM+5% charcoal/dextran-treated fetal bovine serum+1% penicillin-streptomycin double antibody solution), and seeded in a clear 96-well cell culture plate with 80 μL per well containing 20,000 cells, and the cell culture plate was incubated overnight in a carbon dioxide incubator;
ELISA plate was coated with strips, human total estrogen receptor a capture antibody was diluted with 1×PBS with a final concentration of 1 μg/mL, and 100 μL of mixture was added to each well, and incubated overnight at 25° C.
Cell administration: The test compound was diluted to the 8th concentration with a multi-channel pipette, and the compound concentration was 20 μM and 4 μM, and then diluted to the 8th concentration of 0.256 nM in turn, and a double-duplicate experiment was set-up. 78 μL of culture medium was added to the middle plate, then 2 μL of gradient dilution compound per well was transferred to the middle plate according to the corresponding position, and 20 μL of the mixture per well was mixed evenly and transferred to the cell plate, and the final concentration of DMSO was 0.5%, and the mixture was incubated at 37° C. for 4 hours;
preparation of standard curve solution: 110 ng/mL of standard curve storage solution was 6-fold diluted with buffer (1×PBS containing 1 mM EDTA, 0.5% Triton X-100, pH 7.2 to 7.4) to obtain a solution with a concentration of 18.3 ng/mL, and then 91.5-fold diluted with buffer (1×PBS containing 1 mM EDTA, 0.5% Triton X-100, 1 M urea, pH 7.2 to 7.4) to obtain a solution with a concentration of 0.2 ng/mL, and 8-point gradient dilution was performed using buffer (1×PBS containing 1 mM EDTA, 0.5% Triton X-100, 1 M urea, pH 7.2 to 7.4) with a final concentration of […].
1×PBS was pre-cooled, and after the incubation of the compound, the supernatant was removed, and then the plate was washed with 250 μL of pre-cooled 1×PBS per well, then 30 µL of cell lysate per well (1×PBS containing 1 mM EDTA, 0.5% Triton X-100, 6 M urea, 1 mM active sodium orthovanadate, 2.5 mM sodium pyrophosphate, lx protease inhibitor, pH 7.2 to 7.4) was added, and lysed on ice for 15 minutes;
after cell was lysed in the cell plate, the cell lysate was 6-fold diluted with 150 μL of buffer (1×PBS containing 1 mM EDTA, 0.5% Triton X-100, pH 7.2 to 7.4) per well, and the mixture was mixed evenly by blowing with a multi-channel pipette, and 100 μL of solution per well was transferred to the ELISA plate;
the human total estrogen receptor a detection antibody stock solution (14.4 μg/mL) was 36-fold diluted with buffer (1×PBS containing 1% bovine serum albumin), and the final concentration of the detection antibody was 400 ng/mL, and 100 μL of the solution per well was transferred to the ELISA plate and incubated at 25° C. for 2 hours;
Data analysis: A, B, C and D in the four-parameter equation y=(A−D)/[1+(x/C)^B]+D were calculated according to the original data of the standard curve, wherein, y was the original OD450 value, x was the concentration of the corresponding point of the standard curve. According to the four-parameter equation and the OD450 reading of the original data of the sample, the concentration of ERα at the corresponding point was calculated. The equation (Sample−Min)/(Max−Min)×100% was used to convert the original data into inhibition rate, and the IC50 value could be obtained by curve fitting with four parameters (obtained by “log (inhibitor) vs. response—variable slope” mode in GraphPad Prism).
Max wells: Positive control wells reading at 100 nM Fulvestrant-treated cell wells […]

[2] = biological target: CYP1A2 (Homo sapiens (Human), UniProt P05177); type: in vitro ADME; details: microsomes
CYP1A2, sequence (P05177 whole entry): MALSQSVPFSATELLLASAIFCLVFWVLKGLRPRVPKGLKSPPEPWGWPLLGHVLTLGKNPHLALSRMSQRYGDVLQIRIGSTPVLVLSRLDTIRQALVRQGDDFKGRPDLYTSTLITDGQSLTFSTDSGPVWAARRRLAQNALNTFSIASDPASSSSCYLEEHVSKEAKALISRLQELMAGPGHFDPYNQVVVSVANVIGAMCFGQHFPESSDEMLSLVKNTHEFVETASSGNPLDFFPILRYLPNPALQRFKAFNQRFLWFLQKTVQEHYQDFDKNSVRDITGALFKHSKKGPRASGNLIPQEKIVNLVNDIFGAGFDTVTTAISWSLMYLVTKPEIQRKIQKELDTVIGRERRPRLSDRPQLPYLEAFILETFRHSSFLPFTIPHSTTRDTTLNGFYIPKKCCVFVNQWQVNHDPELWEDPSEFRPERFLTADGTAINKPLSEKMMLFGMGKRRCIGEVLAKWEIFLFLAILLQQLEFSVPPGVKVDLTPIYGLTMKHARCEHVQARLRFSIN
Protocol: (§1) Experimental purposes: To test the inhibitory effect of test compound on the activity of human liver microsomal cytochrome P450 isoenzymes (CYP1A2 and CYP3A4) (Corning, Co., Ltd.).
(§2) Experimental operation: Firstly, the test compound (10 mM) was subjected to gradient dilution to prepare a working solution (100×final concentration), and the concentration of the working solution was: 5, 1.5, 0.5, 0.15, 0.05, 0.015 and 0.005 mM, respectively, and the working solution of each positive inhibitor of P450 isoenzyme (CYP1A2 and CYP3A4) and its specific substrate mixture (5 in 1) were prepared; and then the human liver microsomes frozen in the −80° C. refrigerator were thawed on ice, and all the human liver microsomes were dissolved, diluted with PB, and a certain concentration of working solution (0.253 mg/mL) was prepared; 20 μL of substrate mixture was added to the reaction plate (20 μL of PB was added to the blank well), while 158 μL of human liver microsomal working solution was added to the reaction plate, and the reaction plate was placed on ice for later use; at this time, 2 μL of various concentrations of the test compound (N=1) and specific inhibitor (N=2) were added to the corresponding well, and the corresponding organic solvent was added to the non-inhibitor (test compound or positive inhibitor) group as a control group sample (a ratio of DMSO:MeOH in the test compound control sample was 1:1, a ratio of DMSO:MeOH in the positive control sample was 1:9); after pre-incubation in a water bath at 37° C. for 10 min, 20 μL of coenzyme factor (NADPH) solution was added to the reaction plate, and incubated in a water bath at 37° C. for 10 min; and 400 μL of cold acetonitrile solution (internal standard was 200 ng/mL tolbutamide and labetalol) was added to terminate the reaction; the reaction plate was placed on a shaker and shaked for 10 minutes; and then centrifuged at 4,000 rpm for 20 minutes; 200 μL of the supernatant was taken and added to 100 μL of water for sample dilution; finally the plate was sealed, shaked and shaked well, for LC/MS/MS detection.

[3] = biological target: CYP3A4 (Homo sapiens (Human), UniProt P08684); experiment: Cytochrome P450 isoenzyme inhibition, human liver microsomes; type: in vitro ADME
CYP3A4, sequence (P08684 whole entry): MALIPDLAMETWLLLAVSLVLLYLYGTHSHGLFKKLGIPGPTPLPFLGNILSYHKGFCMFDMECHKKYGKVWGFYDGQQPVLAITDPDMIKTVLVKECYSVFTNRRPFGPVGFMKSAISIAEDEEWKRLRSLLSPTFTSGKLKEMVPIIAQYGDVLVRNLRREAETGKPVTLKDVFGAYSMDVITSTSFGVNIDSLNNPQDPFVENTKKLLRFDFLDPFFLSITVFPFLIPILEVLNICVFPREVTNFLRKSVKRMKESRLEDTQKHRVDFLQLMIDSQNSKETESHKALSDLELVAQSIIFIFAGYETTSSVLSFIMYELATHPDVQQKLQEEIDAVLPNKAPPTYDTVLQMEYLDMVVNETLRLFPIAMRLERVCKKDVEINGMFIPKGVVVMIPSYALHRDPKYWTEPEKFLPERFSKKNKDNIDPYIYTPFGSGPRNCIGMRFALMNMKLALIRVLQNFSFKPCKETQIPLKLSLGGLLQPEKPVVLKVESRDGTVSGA
Protocol: as §1, §2

ERα, sequence (P03372 whole entry): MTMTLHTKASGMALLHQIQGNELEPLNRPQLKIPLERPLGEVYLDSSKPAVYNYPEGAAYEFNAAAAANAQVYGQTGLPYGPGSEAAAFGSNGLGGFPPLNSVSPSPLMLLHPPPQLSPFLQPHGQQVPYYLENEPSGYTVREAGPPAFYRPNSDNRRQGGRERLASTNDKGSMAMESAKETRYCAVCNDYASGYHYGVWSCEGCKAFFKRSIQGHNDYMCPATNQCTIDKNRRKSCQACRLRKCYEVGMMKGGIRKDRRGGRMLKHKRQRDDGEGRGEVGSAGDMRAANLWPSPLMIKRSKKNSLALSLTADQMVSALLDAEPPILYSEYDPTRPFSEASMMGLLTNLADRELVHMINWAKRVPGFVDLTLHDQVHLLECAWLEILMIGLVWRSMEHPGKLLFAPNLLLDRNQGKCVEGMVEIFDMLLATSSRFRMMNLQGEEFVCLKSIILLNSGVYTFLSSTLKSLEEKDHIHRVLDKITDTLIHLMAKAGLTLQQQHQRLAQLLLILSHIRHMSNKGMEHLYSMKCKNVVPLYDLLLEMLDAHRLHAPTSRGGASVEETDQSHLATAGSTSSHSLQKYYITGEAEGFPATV

SMILES | DC50 [1] [µM] | IC50 ([2]; human, 10 min) [µM] | IC50 [3] [µM] | IC50 [1] [µM] | IC50 [2] [µM]
FCCCN1CC(Nc2ccc(C3=C(CC(F)(F)F)CCCc4c3ccc3[nH]nc(F)c43)nc2)C1 [Compound 2] | 0.0002 | > 50 | 47.2 |  | 
FCCCN1CC[C@H](Nc2cnc(C3=C(CC(F)(F)F)CCCc4c3ccc3[nH]nc(F)c43)cn2)C1 [Compound 11A] |  |  | 25.7 | 0.00023 | > 50
